Assay results reported in US4962109A, “Insecticidally and acaricidally active pyrimidine esters and intermediates therefor” (Imperial Chemical Industries PLC, priority 1985, dated 1990).

How the values were obtained:
Assay type in all cases: in vivo
[1] = tested on: Spodoptera exigua (lesser army worm - larvae); experiment: Residual test on lesser army worm larvae (SP), Cotton leaf, mortality; details: 48 h, residual, 2 days, read-out: SP grading of mortality
Experimental: (§1) The activity of the Product was determined using a variety of insect pests. The Product was used in the form of liquid preparations containing 500, 250 or 100 parts per million (ppm) by weight of the Product. The preparations were made by dissolving the Product in acetone and diluting the solutions with water containing 0.01% by weight of a wetting agent sold under the trade name "LISSAPOL" NX until the liquid preparations contained the required concentration of the Product. "Lissapol" is a Registered Trade Mark.
(§2) The test procedure adopted with regard to each pest was basically the same and comprised supporting a number of the pests on a medium which was usually a host plant or a foodstuff on which the pests feed, and treating either or both the pests and the medium with the preparations. The mortality of the pests was then assessed at periods usually varying from one to three days after the treatment.
(§3) The results of the tests are given in Table III for each of the Products, at the rate in parts per million given in the second column as a grading of mortality designated as A, B or C wherein A indicates 80-100% mortality or knockdown, B indicates 50-79% mortality or knockdown and C indicates less than 50% mortality or knockdown.
(lesser army worm - larvae)

[2] = tested on: Blattella germanica (cockroach nymphs); experiment: Contact test on cockroach nymphs (BG/C), Plastic pot, mortality; details: 48 h, contact, 2 days, read-out: BG/C grading of mortality
Experimental: as §1, §2, §3
BG/C Blattella germanica

[3] = tested on: Tetranychus urticae (spider mites - ova); experiment: Contact test on spider mites - ova (TUe), French bean leaf, mortality; details: 144 h, contact, 6 days, read-out: TUe grading of mortality
Experimental: as §1, §2, §3

[4] = tested on: Tetranychus urticae (spider mites - adult); experiment: Contact test on spider mites - adult (TUa), French bean leaf, mortality; details: 72 h, contact, 3 days, read-out: TUa grading of mortality
Experimental: as §1, §2, §3

Myzus persicae (aphids) = experiment: Contact test on aphids (MP), Chinese Cabbage leaf, mortality; details: 72 h, contact, 3 days, read-out: MP grading of mortality
Experimental: as §1, §2, §3

[5] = tested on: Heliothis virescens (tobacco budworm - larvae); experiment: Residual test on tobacco budworm larvae (HV), Cotton leaf, mortality; details: 48 h, read-out: HV grading of mortality
Experimental: as §1, §2, §3
(tobacco budworm - larvae)

[6] = tested on: Musca domestica (houseflies - adults); experiment: Contact test on houseflies - adults (MD), Cotton wool/sugar, mortality; details: 72 h, contact, 3 days, read-out: MD grading of mortality
Experimental: as §1, §2, §3

[7] = tested on: Musca domestica (houseflies - adults); experiment: Knockdown test on houseflies - adults (MD/KD), Cotton wool/sugar; details: 4 hours, read-out: MD/KD grading of knockdown
Experimental: as §1, §2
In the case of the species Musca domestica (housefly), additional tests to determine the knockdown effect of the compounds were performed. PG,163
as §3

[8] = tested on: Diabrotica balteata (rootworm larvae); experiment: Residual test on rootworm larvae (DB), Filter paper/maize seed, mortality; details: 48 h, residual, 2 days, read-out: DB grading of mortality
Experimental: as §1, §2, §3

[9] = tested on: Nephotettix cincticeps (green leaf hopper - nymphs); experiment: Contact test on green leaf hopper nymphs (NC), Rice plant, mortality; details: 48 h, contact, 2 days, read-out: NC grading of mortality
Experimental: as §1, §2, §3
NC Nephotettix cincticeps

CC(C)OCc1c(F)c(F)c(COC(=O)C(c2cnc(C(C)(C)C)nc2)C(C)(C)C)c(F)c1F (racemic) [Compound 189, 2,3,5,6-tetrafluoro-4-[(1-methyl)ethoxy]methylbenzyl (RS)-2-[2-(1,1-dimethylethyl)-pyrimidin-5-yl]-3,3dimethylbutanoate]
< 50%: mortality at 500 ppm [2] | mortality at 500 ppm [3] | mortality at 500 ppm [5] | mortality at 500 ppm [6] | mortality at 500 ppm [8]
80 to 100%: mortality at 500 ppm [1] | mortality at 500 ppm [4] | mortality at 500 ppm (Myzus persicae (aphids)) | mortality at 500 ppm [9]
50 to 79%: pest or weed control at 500 ppm [7]

CC(C)(C)C(C(=O)OCc1ccc(F)c(Oc2ccccc2)c1)c1cnc(C2CC2)nc1 (racemic) [Compound 201, 4-fluoro-3-phenoxybenzyl (RS)-2-(2-cyclopropylpyrimidin-5-yl)-3,3-dimethylbutanoate]
80 to 100%: mortality at 500 ppm [1] | mortality at 500 ppm [4] | mortality at 500 ppm (Myzus persicae (aphids)) | mortality at 500 ppm [5] | mortality at 500 ppm [6] | pest or weed control at 500 ppm [7] | mortality at 500 ppm [8] | mortality at 500 ppm [9]
50 to 79%: mortality at 500 ppm [2] | mortality at 500 ppm [3]

CC(C)(C)c1ncc(C(C(=O)SCc2c(F)c(F)c(CO)c(F)c2F)C(C)(C)C)cn1 (racemic) [Compound 196]
< 50%: mortality at 500 ppm [2] | mortality at 500 ppm [3] | mortality at 500 ppm [4] | mortality at 500 ppm (Myzus persicae (aphids)) | mortality at 500 ppm [5] | mortality at 500 ppm [6] | pest or weed control at 500 ppm [7] | mortality at 500 ppm [8] | mortality at 500 ppm [9]
80 to 100%: mortality at 500 ppm [1]

CSc1c(COC(=O)C(c2cnc(C(C)(C)C)nc2)C(C)(C)C)cc(F)c(C)c1F (racemic) [Compound 182, 4-methyl-2-thiomethyl-3,5-difluorobenzyl (RS)-2-[2-(1,1-dimethylethyl)pyrimidin-5-yl]-3,3dimethylbutanoate]
50 to 79%: mortality at 500 ppm (Myzus persicae (aphids))
80 to 100%: mortality at 500 ppm [4] | mortality at 500 ppm [9]
< 50%: mortality at 500 ppm [1] | mortality at 500 ppm [2] | mortality at 500 ppm [3] | mortality at 500 ppm [5] | mortality at 500 ppm [6] | pest or weed control at 500 ppm [7] | mortality at 500 ppm [8]

Cc1ncc(C(C(=O)OCc2ccc(F)c(Oc3ccccc3)c2)C(C)(C)C)cn1 (racemic) [Compound 206, 4-fluoro-3-phenoxybenzyl (RS)-2-(2-methylpyrimidin-5-yl)-3,3,-dimethylbutanoate]
80 to 100%: mortality at 500 ppm [1] | mortality at 500 ppm [4] | mortality at 500 ppm (Myzus persicae (aphids)) | mortality at 500 ppm [5] | mortality at 500 ppm [6] | pest or weed control at 500 ppm [7] | mortality at 500 ppm [8] | mortality at 500 ppm [9]
< 50%: mortality at 500 ppm [3]
50 to 79%: mortality at 500 ppm [2]

C[C@@H](OC(=O)[C@@H](c1cnc(C(C)(C)C)nc1)C(C)(C)C)c1cccc(Oc2ccc(Cl)cc2)n1 (racemic) [Compound 181, (RS)-1-[6-(4-chlorophenoxy)pyrid-2-yl]ethyl (RS)-2-[2-(1,1-dimethylethyl)pyrimidin-5-yl]-3,3-dimethylbutanoate]
< 50%: mortality at 500 ppm [2] | mortality at 500 ppm [3]
80 to 100%: mortality at 500 ppm [1] | mortality at 500 ppm [4] | mortality at 500 ppm (Myzus persicae (aphids)) | mortality at 500 ppm [5] | mortality at 500 ppm [6] | pest or weed control at 500 ppm [7] | mortality at 500 ppm [8] | mortality at 500 ppm [9]

CC(C)(C)C(=O)OCc1c(F)c(F)c(COC(=O)C(c2cnc(C(C)(C)C)nc2)C(C)(C)C)c(F)c1F (racemic) [Compound 172, 4-[(2,2-dimethylpropionyl)oxymethyl]-2,3,5,6-tetrafluorobenzyl (RS)-2-[2-(1,1-dimethylethyl)pyrimidin-5-yl]-3,3-dimethylbutanoate]
80 to 100%: mortality at 500 ppm [4]
< 50%: mortality at 500 ppm [1] | mortality at 500 ppm [2] | mortality at 500 ppm [3] | mortality at 500 ppm [5] | mortality at 500 ppm [6] | pest or weed control at 500 ppm [7] | mortality at 500 ppm [8] | mortality at 500 ppm [9]
50 to 79%: mortality at 500 ppm (Myzus persicae (aphids))

CCOCc1c(F)c(F)c(COC(=O)C(c2cnc(C(C)(C)C)nc2)C(C)(C)C)c(OC)c1F (racemic) [Compound 187, 2,3,5-trifluoro-6-methoxy-4-(ethoxymethyl)benzyl (RS)-2-[2-(1,1-dimethylethyl)pyrimidin-5-yl]-3,3-dimethylbutanoate]
50 to 79%: mortality at 500 ppm [5] | mortality at 500 ppm [6]
< 50%: mortality at 500 ppm [2] | mortality at 500 ppm [3] | mortality at 500 ppm [8]
80 to 100%: mortality at 500 ppm [1] | mortality at 500 ppm [4] | mortality at 500 ppm (Myzus persicae (aphids)) | pest or weed control at 500 ppm [7] | mortality at 500 ppm [9]

CC(OC(=O)C(c1cnc(-c2ccccc2)nc1)C(C)(C)C)c1cccc(Oc2ccccc2)n1 (racemic) [Compound 82, (RS)-1-(6-phenoxpyrid-2-yl)ethyl (RS)-2-(2-phenylpyrimidin-5-yl)-3,3-dimethylbutanoate]
80 to 100%: mortality at 1000 ppm ([1]; 1000 ppm) | mortality at 1000 ppm ([4]; 1000 ppm) | mortality at 1000 ppm (Myzus persicae (aphids); 1000 ppm) | mortality at 1000 ppm [5] | pest or weed control at 1000 ppm ([7]; 1000 ppm) | mortality at 1000 ppm ([9]; 1000 ppm)
< 50%: mortality at 1000 ppm ([2]; 1000 ppm) | mortality at 1000 ppm ([3]; 1000 ppm) | mortality at 1000 ppm ([6]; 1000 ppm) | mortality at 1000 ppm ([8]; 1000 ppm)

CC(C)SCc1c(F)c(F)c(COC(=O)C(c2cnc(C(C)(C)C)nc2)C(C)(C)C)c(F)c1F (racemic) [Compound 174]
80 to 100%: mortality at 500 ppm [4] | mortality at 500 ppm (Myzus persicae (aphids))
< 50%: mortality at 500 ppm [1] | mortality at 500 ppm [2] | mortality at 500 ppm [3] | mortality at 500 ppm [5] | mortality at 500 ppm [6] | pest or weed control at 500 ppm [7] | mortality at 500 ppm [8]
50 to 79%: mortality at 500 ppm [9]

CCOCc1c(F)c(F)c(COC(=O)C(c2cnc(C(C)(C)C)nc2)C(C)(C)C)c(F)c1F (racemic) [Compound 186, 2,3,5,6-tetrafluoro-4-(ethoxymethyl)benzyl (RS)-2-[2-(1,1-dimethylethyl)pyrimidin-5-yl]-3,3-dimethylbutanoate]
< 50%: mortality at 500 ppm [2] | mortality at 500 ppm [3] | mortality at 500 ppm [6] | mortality at 500 ppm [8]
80 to 100%: mortality at 500 ppm [1] | mortality at 500 ppm [4] | mortality at 500 ppm (Myzus persicae (aphids)) | mortality at 500 ppm [5] | pest or weed control at 500 ppm [7] | mortality at 500 ppm [9]

C=CCc1c(F)c(F)c(COC(=O)C(c2cnc(C(C)(C)C)nc2)C(C)(C)C)c(F)c1F (racemic) [Compound 5, 4-(prop-2-en-1-yl)-2,3,5,6-tetrafluorobenzyl (RS)-2-[2-(1,1-dimethylethyl)pyrimidin-5-yl]-3,3-dimethylbutanoate]
80 to 100%: mortality at 500 ppm [1] | mortality at 500 ppm [4] | mortality at 500 ppm (Myzus persicae (aphids))
< 50%: mortality at 500 ppm [2] | mortality at 500 ppm [3] | mortality at 500 ppm [6] | mortality at 500 ppm [8]
50 to 79%: mortality at 500 ppm [5] | pest or weed control at 500 ppm [7] | mortality at 500 ppm [9]

COCc1c(F)c(F)c(COC(=O)C(c2cnc(-c3ccccc3Cl)nc2)C(C)(C)C)c(F)c1F (racemic) [Compound 208, 2,3,5,6-tetrafluorbenzyl-4-(methoxymethyl)-benzyl (RS)-2-[2-(2-chlorophenyl)pyrimidin-5-yl]-3,3-dimethylbutanoate]
80 to 100%: mortality at 500 ppm [4] | mortality at 500 ppm (Myzus persicae (aphids)) | mortality at 500 ppm [9]
< 50%: mortality at 500 ppm [1] | mortality at 500 ppm [2] | mortality at 500 ppm [3] | mortality at 500 ppm [5] | mortality at 500 ppm [6] | pest or weed control at 500 ppm [7] | mortality at 500 ppm [8]
